# What was measured:
# Assay in all cases: HTRF/ADP-Glo kinase selectivity panel
# Format in all cases: biochemical
# Conditions in all cases: 500 nM, read-out: 1D228(%inhibition)@500nM
# TXK = target: T1, TXK (Homo sapiens, UniProt P42681)
# T1 construct: purchased Invitrogen (c-Met, TRKA, TRKB, TRKC)
# Description: (§1) The compound was serial diluted from 10 mM stock in DMSO, dilute the test compound to 0.1 mM (200 times the specified test concentration). 2 × ATP & Substrate solution and 2 × kinase & Metal solution were prepared using assay buffer; Transfer 25 nL compound to 384 assay plate by Echo 655; After centrifugation, add 2.5 μL 2 × kinase/metal ion solution 384 assay plate, and incubate at 25 °C for 10 min. 2 × XL665 & Antibody solution were prepared with detection buffer; 5 μL of Kinase Detection Reagent was added to the well, and incubated for 60 min at 25 °C; The fluorescence signals of 620 nm (Cryptate) and 665 nm (XL665) were read by microtiter plate reader; […]
# FLT4 = target: T2, FLT4 (Homo sapiens, UniProt P35916)
# T2 construct: purchased Invitrogen (c-Met, TRKA, TRKB, TRKC)
# Description: as §1
# TEC = target: T3, TEC (Homo sapiens, UniProt P42680)
# T3 construct: purchased Invitrogen (c-Met, TRKA, TRKB, TRKC)
# Description: as §1
# PDGFRβ = target: T4, PDGFRβ (Homo sapiens, UniProt P09619)
# T4 construct: purchased Invitrogen (c-Met, TRKA, TRKB, TRKC)
# Description: as §1
# INSR = target: T5, INSR (Homo sapiens, UniProt P06213)
# T5 construct: purchased Invitrogen (c-Met, TRKA, TRKB, TRKC)
# Description: as §1
# IGF1R = target: T6, IGF1R (Homo sapiens, UniProt P08069)
# T6 construct: purchased Invitrogen (c-Met, TRKA, TRKB, TRKC)
# Description: as §1
# FER = target: T7, FER (Homo sapiens, UniProt P16591)
# T7 construct: purchased Invitrogen (c-Met, TRKA, TRKB, TRKC)
# Description: as §1
# PDGFRα = target: T8, PDGFRα (Homo sapiens, UniProt P16234)
# T8 construct: purchased Invitrogen (c-Met, TRKA, TRKB, TRKC)
# Description: as §1
# ABL1 = target: T9, ABL1 (Homo sapiens, UniProt P00519)
# T9 construct: purchased Invitrogen (c-Met, TRKA, TRKB, TRKC)
# Description: as §1
# FYN [b] = target: T10, FYN [b] (Homo sapiens, UniProt P06241)
# T10 construct: purchased Invitrogen (c-Met, TRKA, TRKB, TRKC)
# Description: as §1
# FGFR4 = target: T11, FGFR4 (Homo sapiens, UniProt P22455)
# T11 construct: purchased Invitrogen (c-Met, TRKA, TRKB, TRKC)
# Description: as §1
# FES = target: T12, FES (Homo sapiens, UniProt P07332)
# T12 construct: purchased Invitrogen (c-Met, TRKA, TRKB, TRKC)
# Description: as §1
# YES = target: T13, YES (Homo sapiens, UniProt P07947)
# T13 construct: purchased Invitrogen (c-Met, TRKA, TRKB, TRKC)
# Description: as §1
# BMX = target: T14, BMX (Homo sapiens, UniProt P51813)
# T14 construct: purchased Invitrogen (c-Met, TRKA, TRKB, TRKC)
# T14 sequence (P51813 whole entry): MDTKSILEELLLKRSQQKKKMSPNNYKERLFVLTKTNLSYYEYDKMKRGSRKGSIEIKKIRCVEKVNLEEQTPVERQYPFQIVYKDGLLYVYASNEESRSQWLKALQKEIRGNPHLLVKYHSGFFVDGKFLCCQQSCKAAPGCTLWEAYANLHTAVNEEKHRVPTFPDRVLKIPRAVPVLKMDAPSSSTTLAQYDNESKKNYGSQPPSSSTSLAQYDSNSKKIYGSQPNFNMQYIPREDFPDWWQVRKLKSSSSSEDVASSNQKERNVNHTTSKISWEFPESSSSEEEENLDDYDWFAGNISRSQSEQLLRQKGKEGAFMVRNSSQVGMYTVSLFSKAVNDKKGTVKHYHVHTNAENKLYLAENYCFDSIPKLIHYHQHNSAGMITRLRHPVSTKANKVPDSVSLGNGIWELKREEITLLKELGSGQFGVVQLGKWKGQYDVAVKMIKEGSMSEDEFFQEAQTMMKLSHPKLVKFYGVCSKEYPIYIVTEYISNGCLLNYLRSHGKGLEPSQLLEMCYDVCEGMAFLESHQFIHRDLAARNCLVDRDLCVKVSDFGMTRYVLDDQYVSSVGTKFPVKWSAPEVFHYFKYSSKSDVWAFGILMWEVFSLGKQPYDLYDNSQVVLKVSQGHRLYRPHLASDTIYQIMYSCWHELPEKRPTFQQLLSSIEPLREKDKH
# Description: as §1
# TYK2 = target: T15, TYK2 (Homo sapiens, UniProt P29597)
# T15 construct: purchased Invitrogen (c-Met, TRKA, TRKB, TRKC)
# Description: as §1
# FGFR3 = target: T16, FGFR3 (Homo sapiens, UniProt P22607)
# T16 construct: purchased Invitrogen (c-Met, TRKA, TRKB, TRKC)
# Description: as §1
# EPHA8 = target: T17, EPHA8 (Homo sapiens, UniProt P29322)
# T17 construct: purchased Invitrogen (c-Met, TRKA, TRKB, TRKC)
# Description: as §1
# SRC = target: T18, SRC (Homo sapiens, UniProt P12931)
# T18 construct: purchased Invitrogen (c-Met, TRKA, TRKB, TRKC)
# Description: as §1
# KDR = target: T19, KDR (Homo sapiens, UniProt P35968)
# T19 construct: purchased Invitrogen (c-Met, TRKA, TRKB, TRKC)
# T19 sequence (P35968 20-1356): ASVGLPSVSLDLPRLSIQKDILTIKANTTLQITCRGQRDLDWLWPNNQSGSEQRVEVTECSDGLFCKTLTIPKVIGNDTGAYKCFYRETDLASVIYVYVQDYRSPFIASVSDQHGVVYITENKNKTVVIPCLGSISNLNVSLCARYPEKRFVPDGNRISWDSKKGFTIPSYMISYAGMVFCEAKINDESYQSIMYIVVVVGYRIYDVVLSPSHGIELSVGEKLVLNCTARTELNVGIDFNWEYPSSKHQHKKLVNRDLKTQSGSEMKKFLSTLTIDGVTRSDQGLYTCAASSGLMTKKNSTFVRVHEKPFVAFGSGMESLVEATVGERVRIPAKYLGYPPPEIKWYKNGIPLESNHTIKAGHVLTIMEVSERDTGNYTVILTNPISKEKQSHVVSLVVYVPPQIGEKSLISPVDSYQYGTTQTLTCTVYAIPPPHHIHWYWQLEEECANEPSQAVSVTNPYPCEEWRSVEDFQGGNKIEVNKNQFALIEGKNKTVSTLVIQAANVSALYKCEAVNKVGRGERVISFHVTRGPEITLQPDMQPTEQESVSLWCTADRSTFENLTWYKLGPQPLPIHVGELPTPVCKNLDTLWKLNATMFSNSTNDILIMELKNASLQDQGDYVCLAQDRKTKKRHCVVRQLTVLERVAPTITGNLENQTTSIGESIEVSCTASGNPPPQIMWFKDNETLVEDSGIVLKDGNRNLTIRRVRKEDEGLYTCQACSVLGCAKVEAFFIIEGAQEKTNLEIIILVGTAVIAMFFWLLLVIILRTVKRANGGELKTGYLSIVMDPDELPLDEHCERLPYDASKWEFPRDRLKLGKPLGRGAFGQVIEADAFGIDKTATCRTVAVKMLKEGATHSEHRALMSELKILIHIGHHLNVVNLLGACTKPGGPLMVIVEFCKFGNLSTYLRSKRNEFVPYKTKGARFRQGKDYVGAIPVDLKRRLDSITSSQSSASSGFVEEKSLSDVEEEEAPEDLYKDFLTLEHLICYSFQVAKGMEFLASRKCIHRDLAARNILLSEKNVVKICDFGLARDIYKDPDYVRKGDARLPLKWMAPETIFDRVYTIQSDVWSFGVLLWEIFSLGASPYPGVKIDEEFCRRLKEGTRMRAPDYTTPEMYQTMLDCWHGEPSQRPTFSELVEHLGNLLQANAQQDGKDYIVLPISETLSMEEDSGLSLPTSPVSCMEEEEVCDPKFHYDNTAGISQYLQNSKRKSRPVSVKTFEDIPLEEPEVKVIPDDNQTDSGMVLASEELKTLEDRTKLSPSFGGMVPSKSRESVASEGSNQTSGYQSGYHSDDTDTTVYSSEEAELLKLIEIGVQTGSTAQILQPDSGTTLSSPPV
# Description: as §1
# MER = target: T20, MER (Homo sapiens, UniProt Q12866)
# T20 construct: purchased Invitrogen (c-Met, TRKA, TRKB, TRKC)
# Description: as §1
# LYNa = target: T21, LYNa (Homo sapiens, UniProt P07948)
# T21 construct: purchased Invitrogen (c-Met, TRKA, TRKB, TRKC)
# Description: as §1
# EPHA2 = target: T22, EPHA2 (Homo sapiens, UniProt P29317)
# T22 construct: purchased Invitrogen (c-Met, TRKA, TRKB, TRKC)
# Description: as §1
# CSF1R = target: T23, CSF1R (Homo sapiens, UniProt P07333)
# T23 construct: purchased Invitrogen (c-Met, TRKA, TRKB, TRKC)
# Description: as §1
# CSK = target: T24, CSK (Homo sapiens, UniProt P41240)
# T24 construct: purchased Invitrogen (c-Met, TRKA, TRKB, TRKC)
# Description: as §1
# JAK2 = target: T25, JAK2 (Homo sapiens, UniProt O60674)
# T25 construct: purchased Invitrogen (c-Met, TRKA, TRKB, TRKC)
# Description: as §1
# FYN [a] = target: T26, FYN [a] (Homo sapiens, UniProt P06241)
# T26 construct: purchased Invitrogen (c-Met, TRKA, TRKB, TRKC)
# Description: as §1
# RET = target: T27, RET (Homo sapiens, UniProt P07949)
# T27 construct: purchased Invitrogen (c-Met, TRKA, TRKB, TRKC)
# Description: as §1
# SRM = target: T28, SRM (Homo sapiens, UniProt Q9H3Y6)
# T28 construct: purchased Invitrogen (c-Met, TRKA, TRKB, TRKC)
# T28 sequence (Q9H3Y6 whole entry): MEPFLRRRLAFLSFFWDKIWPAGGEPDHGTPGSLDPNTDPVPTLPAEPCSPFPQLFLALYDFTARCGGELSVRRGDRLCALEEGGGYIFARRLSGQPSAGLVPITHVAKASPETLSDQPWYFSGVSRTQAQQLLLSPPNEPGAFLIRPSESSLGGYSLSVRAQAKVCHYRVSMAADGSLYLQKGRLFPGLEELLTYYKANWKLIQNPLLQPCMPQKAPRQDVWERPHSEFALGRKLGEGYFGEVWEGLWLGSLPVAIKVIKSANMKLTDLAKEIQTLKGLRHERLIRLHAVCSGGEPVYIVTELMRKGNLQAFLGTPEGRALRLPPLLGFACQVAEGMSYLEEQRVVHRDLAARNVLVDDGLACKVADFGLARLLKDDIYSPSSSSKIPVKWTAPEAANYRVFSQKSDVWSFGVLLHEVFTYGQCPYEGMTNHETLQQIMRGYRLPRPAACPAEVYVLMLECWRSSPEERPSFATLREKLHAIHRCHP
# Description: as §1
# TRKB = target: T29, TRKB (Homo sapiens, UniProt Q16620)
# T29 construct: purchased Invitrogen
# Description: as §1
# FGFR2 = target: T30, FGFR2 (Homo sapiens, UniProt P21802)
# T30 construct: purchased Invitrogen (c-Met, TRKA, TRKB, TRKC)
# T30 sequence (P21802 22-821): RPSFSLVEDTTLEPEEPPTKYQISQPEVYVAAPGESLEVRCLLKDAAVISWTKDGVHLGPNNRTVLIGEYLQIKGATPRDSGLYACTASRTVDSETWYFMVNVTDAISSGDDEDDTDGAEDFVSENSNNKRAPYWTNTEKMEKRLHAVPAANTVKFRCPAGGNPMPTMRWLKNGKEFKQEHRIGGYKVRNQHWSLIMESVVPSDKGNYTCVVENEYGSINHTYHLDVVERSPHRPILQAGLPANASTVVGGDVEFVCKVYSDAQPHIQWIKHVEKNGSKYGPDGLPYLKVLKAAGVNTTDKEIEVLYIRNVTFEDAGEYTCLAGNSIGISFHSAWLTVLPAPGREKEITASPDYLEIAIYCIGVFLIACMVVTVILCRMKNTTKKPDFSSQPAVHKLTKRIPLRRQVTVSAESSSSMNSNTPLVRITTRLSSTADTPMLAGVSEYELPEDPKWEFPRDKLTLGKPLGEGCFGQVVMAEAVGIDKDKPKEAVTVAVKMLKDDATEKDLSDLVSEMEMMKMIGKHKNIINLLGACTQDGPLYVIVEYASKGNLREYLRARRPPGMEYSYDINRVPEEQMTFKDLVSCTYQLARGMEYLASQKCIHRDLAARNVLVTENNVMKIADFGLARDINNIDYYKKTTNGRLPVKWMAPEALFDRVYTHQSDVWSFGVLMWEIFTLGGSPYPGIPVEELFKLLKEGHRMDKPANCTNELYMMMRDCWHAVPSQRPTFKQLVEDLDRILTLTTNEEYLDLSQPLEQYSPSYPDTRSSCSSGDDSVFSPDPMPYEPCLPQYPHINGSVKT
# Description: as §1
# Her4 = target: T31, Her4 (Homo sapiens, UniProt Q15303)
# T31 construct: purchased Invitrogen (c-Met, TRKA, TRKB, TRKC)
# Description: as §1
# EPHA1 = target: T32, EPHA1 (Homo sapiens, UniProt P21709)
# T32 construct: purchased Invitrogen (c-Met, TRKA, TRKB, TRKC)
# T32 sequence (P21709 26-976): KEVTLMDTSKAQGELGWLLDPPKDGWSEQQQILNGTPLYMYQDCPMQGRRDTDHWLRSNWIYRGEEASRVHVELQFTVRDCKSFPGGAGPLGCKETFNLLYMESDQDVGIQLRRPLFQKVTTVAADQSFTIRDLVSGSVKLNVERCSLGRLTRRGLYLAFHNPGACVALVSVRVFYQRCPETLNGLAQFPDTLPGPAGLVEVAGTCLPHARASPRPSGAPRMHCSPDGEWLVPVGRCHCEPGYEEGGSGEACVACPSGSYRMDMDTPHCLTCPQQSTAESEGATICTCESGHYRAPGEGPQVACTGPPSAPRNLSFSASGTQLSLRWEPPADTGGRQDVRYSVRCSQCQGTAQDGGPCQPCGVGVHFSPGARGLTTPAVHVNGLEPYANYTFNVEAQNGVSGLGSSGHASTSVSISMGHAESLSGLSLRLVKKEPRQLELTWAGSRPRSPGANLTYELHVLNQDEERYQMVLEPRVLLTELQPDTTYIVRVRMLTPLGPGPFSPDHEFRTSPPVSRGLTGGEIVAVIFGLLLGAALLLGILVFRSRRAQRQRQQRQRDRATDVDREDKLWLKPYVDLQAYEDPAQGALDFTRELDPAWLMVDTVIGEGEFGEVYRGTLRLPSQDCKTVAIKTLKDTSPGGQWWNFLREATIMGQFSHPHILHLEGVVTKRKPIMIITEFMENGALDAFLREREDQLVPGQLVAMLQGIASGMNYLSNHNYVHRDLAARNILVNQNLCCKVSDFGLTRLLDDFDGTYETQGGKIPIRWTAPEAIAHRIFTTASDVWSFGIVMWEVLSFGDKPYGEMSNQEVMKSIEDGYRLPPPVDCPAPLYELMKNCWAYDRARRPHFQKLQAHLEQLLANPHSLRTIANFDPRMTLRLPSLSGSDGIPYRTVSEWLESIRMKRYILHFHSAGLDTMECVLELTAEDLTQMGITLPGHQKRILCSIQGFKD
# Description: as §1
# DDR1 = target: T33, DDR1 (Homo sapiens, UniProt Q08345)
# T33 construct: purchased Invitrogen (c-Met, TRKA, TRKB, TRKC)
# Description: as §1
# MET = target: T34, MET (Homo sapiens, UniProt P08581)
# T34 construct: purchased Invitrogen (c-Met, TRKA, TRKB, TRKC)
# Description: as §1
# HER2 = target: T35, HER2 (Homo sapiens, UniProt P04626)
# T35 construct: purchased Invitrogen (c-Met, TRKA, TRKB, TRKC)
# Description: as §1
# ITK = target: T36, ITK (Homo sapiens, UniProt Q08881)
# T36 construct: purchased Invitrogen (c-Met, TRKA, TRKB, TRKC)
# T36 sequence (Q08881 whole entry): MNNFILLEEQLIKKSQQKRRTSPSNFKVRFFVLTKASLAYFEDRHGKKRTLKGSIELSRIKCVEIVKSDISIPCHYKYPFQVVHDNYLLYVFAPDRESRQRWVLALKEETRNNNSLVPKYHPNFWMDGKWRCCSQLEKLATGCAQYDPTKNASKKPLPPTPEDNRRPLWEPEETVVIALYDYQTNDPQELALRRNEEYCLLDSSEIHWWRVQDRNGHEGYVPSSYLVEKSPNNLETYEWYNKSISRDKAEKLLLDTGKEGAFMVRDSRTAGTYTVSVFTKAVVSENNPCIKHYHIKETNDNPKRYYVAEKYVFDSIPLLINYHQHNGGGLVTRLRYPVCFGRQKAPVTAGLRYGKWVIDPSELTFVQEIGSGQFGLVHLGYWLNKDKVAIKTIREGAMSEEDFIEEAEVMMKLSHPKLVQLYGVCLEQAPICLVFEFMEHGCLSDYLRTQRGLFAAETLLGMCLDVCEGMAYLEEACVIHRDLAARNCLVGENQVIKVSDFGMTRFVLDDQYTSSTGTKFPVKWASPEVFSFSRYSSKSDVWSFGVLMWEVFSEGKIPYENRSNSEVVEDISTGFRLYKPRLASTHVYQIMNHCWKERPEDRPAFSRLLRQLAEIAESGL
# Description: as §1
# EPHA6 = target: T37, EPHA6 (Homo sapiens, UniProt Q9UF33)
# T37 construct: purchased Invitrogen (c-Met, TRKA, TRKB, TRKC)
# Description: as §1
# PYK2 = target: T38, PYK2 (Homo sapiens, UniProt Q14289)
# T38 construct: purchased Invitrogen (c-Met, TRKA, TRKB, TRKC)
# Description: as §1
# EGFR T790M L858R = target: T39, EGFR T790M L858R (Homo sapiens, UniProt P00533, L858R/T790M)
# T39 construct: purchased Invitrogen (c-Met, TRKA, TRKB, TRKC)
# Description: as §1
# FLT1 = target: T40, FLT1 (Homo sapiens, UniProt P17948)
# T40 construct: purchased Invitrogen (c-Met, TRKA, TRKB, TRKC)
# Description: as §1
smiles,measurement,setting,value
[2H][C@@](C)(c1cccc(-c2ncc(OCC3CCN(C)CC3)cn2)c1)n1nc(-c2cccc(C#N)c2)ccc1=O [1D228],inhibition at 0.5 µM,TXK,1.29%
same,inhibition at 0.5 µM,FLT4,-3.03%
same,inhibition at 0.5 µM,TEC,8.29%
same,inhibition at 0.5 µM,PDGFRβ,-3.95%
same,inhibition at 0.5 µM,INSR,18.6%
same,inhibition at 0.5 µM,IGF1R,5.26%
same,inhibition at 0.5 µM,FER,-13.3%
same,inhibition at 0.5 µM,PDGFRα,8.21%
same,inhibition at 0.5 µM,ABL1,6.37%
same,inhibition at 0.5 µM,FYN [b],10.9%
same,inhibition at 0.5 µM,FGFR4,-0.37%
same,inhibition at 0.5 µM,FES,1.05%
same,inhibition at 0.5 µM,YES,11.3%
same,inhibition at 0.5 µM,BMX,5.12%
same,inhibition at 0.5 µM,TYK2,4.51%
same,inhibition at 0.5 µM,FGFR3,3.05%
same,inhibition at 0.5 µM,EPHA8,8.52%
same,inhibition at 0.5 µM,SRC,2.91%
same,inhibition at 0.5 µM,KDR,5.62%
same,inhibition at 0.5 µM,MER,84.1%
same,inhibition at 0.5 µM,LYNa,27.3%
same,inhibition at 0.5 µM,EPHA2,-0.798%
same,inhibition at 0.5 µM,CSF1R,3.21%
same,inhibition at 0.5 µM,CSK,-3.07%
same,inhibition at 0.5 µM,JAK2,1.82%
same,inhibition at 0.5 µM,FYN [a],-7.78%
same,inhibition at 0.5 µM,RET,12.2%
same,inhibition at 0.5 µM,SRM,2.66%
same,inhibition at 0.5 µM,TRKB,97.1%
same,inhibition at 0.5 µM,FGFR2,1.04%
same,inhibition at 0.5 µM,Her4,2.21%
same,inhibition at 0.5 µM,EPHA1,-1.53%
same,inhibition at 0.5 µM,DDR1,-11.8%
same,inhibition at 0.5 µM,MET,98.4%
same,inhibition at 0.5 µM,HER2,8.78%
same,inhibition at 0.5 µM,ITK,1.6%
same,inhibition at 0.5 µM,EPHA6,-1.78%
same,inhibition at 0.5 µM,PYK2,1.14%
same,inhibition at 0.5 µM,EGFR T790M L858R,11.1%
same,inhibition at 0.5 µM,FLT1,6%

# Reference: paper PMC10636171 (Cell Death & Disease, 2023)
